Test results published in paper PMC7796460, “Relation of Metal-Binding Property and Selective Toxicity of 8-Hydroxyquinoline Derived Mannich Bases Targeting Multidrug Resistant Cancer Cells” (Cancers, 2021).
Read-outs that look alike come from different tables or passages of the source.

Columns and labels:
MES-SA/Dx5 cells [1] = assay: MTT viability assay, MES-SA/Dx5; type: cell-based, human; conditions: for SR: Table S1, IC50 Pgp negative divided by Pgp positive cells; for SR_TQ: Table S1, presence of 1 µM TQ
Description: (§1) MDCK II canine kidney cells, A431 epidermoid carcinoma cells, the human uterine sarcoma cell lines MES-SA and the doxorubicin selected MES-SA-Dx5 were obtained from ATCC (MDCK II: No. CRL-2936™, A431: No. CRL-1555™, MES-SA: No. CRL-1976™, MES-SA/Dx5: No. CRL-1977™). ABCB1 was expressed in A431 and MES-SA cells using lentiviral transduction. The human cervix carcinoma cell line KB-3-1 and the vinblastine selected KB-v1were kind gifts from Dr. Michael M. Gottesman, National Institutes of Health. The phenotype of the resistant cells was verified using cytotoxicity assays. MDCK-B1 and MDCK-MM were established by the Sleeping Beauty transposon-based gene delivery system. OVCAR-8 and NCI-ADRres cells (obtained from the Division of Cancer Treatment and Diagnosis (DCTD) Tumor Repository (National Cancer Institute, Frederick, MD, USA)) were cultivated in RPMI-1640 (Sigma Aldrich, Budapest, Hungary), and other cell lines were cultivated in Dulbecco’s Modified Eagle Medium (DMEM, Sigma Aldrich, Budapest, Hungary), supplemented with 10% fetal bovine serum, 5 mM glutamine, and 50 unit/mL penicillin and streptomycin (Life Technologies, Carlsbad, CA, USA). All cell lines were cultivated at 37 °C, 5% CO2.
(§2) MTT viability assays were performed as described earlier with minor modifications. Briefly, cells were seeded into 96-well tissue culture plates (Sarstedt, Newton, NC, USA/Orange, Braine-l’Alleud, Belgium) at a density of 5000 cells/well and allowed to attach overnight. Test compounds were added to achieve the required final concentration in a final volume of 100 µL per well. After an incubation period of 72 h, the supernatant was removed and fresh medium containing the MTT reagent (0.083 mg/mL) was added. Incubation with MTT at 37 °C was terminated after 1 h by removing the supernatant and lysing the cells with 100 µL DMSO per well. Viability of the cells was measured spectrophotometrically based on the absorbance values at 540 nm using either a Perkin Elmer Victor X3 or an EnSpire microplate reader. Data were background corrected by subtraction of the signal obtained from unstained cell lysates and normalized to untreated cells. Curves were fitted by Prism software (GraphPad Software Inc., San Diego, CA, USA) using the sigmoidal dose-response model (comparing variable and fixed slopes). […] Significance was calculated using unpaired t-tests; results are given as *: p ≤ 0.05, **: p ≤ 0.01, ***: p ≤ 0.001, ****: p ≤ 0.0001.

MES-SA cells [2] = assay: ROS determination with DCFDA, MES-SA; type: cell-based, human; conditions: 2 h
Protocol: (§3) Measurements were performed as described earlier. Briefly, cells were harvested, washed with PBS, and incubated with 10 µM DCFDA in a water bath shaker at 37 °C for 30 min in a density of 3 × 10^6 cells/mL. After washing with PBS, cells were seeded to 96-well plates in PBS in a density of 2 × 10^4 cells/well. Following the measurement of the basal fluorescence, test compounds were added in different concentrations and the fluorescence of the samples was followed at time intervals of 10 min. DCFDA solution in buffer was used as a cell free control to test for interaction of the test compounds with DCFDA. Data were analyzed as fold change of fluorescence compared to basal levels and untreated cells. Significance was calculated using unpaired t-tests; results are given as *: p ≤ 0.05, **: p ≤ 0.01, ***: p ≤ 0.001, ****: p ≤ 0.0001.
(§4) Table S3: Characterization of intracellular ROS production with the DCFDA assay for P -gp negative MES-SA and P-gp positive MES-SA/Dx5 cells. Fold changes in fluorescence are shown after a 2 h with the investigated 8 -hydroxyquinoline ligands. Data S-refer to Figure 7 and allow […]
(§5) concentration range from 6.25µ M to 50µ M. Fold change of fluorescence obtained in the presence of 5 mM NAC is given in brackets.

MES-SA/Dx5 cells [3] = assay: ROS determination with DCFDA, MES-SA/Dx5; type: cell-based, human; conditions: 2 h
Protocol: as §3, §4, §5

[4] = pKa by UV-visible spectrophotometric titrations; type: physicochemical; conditions: T = 25 °C, I = 0.2 M (KCl)
MES-SA cells [5] = assay: MTT viability assay, MES-SA; type: cell-based, human
Description: as §1, §2

[6] = Table S1, calculated as ligand equivalents, absence of TQ, read-out: IC50 Dx5
[7] = Table S1, calculated as ligand equivalents, presence of 1 µM TQ, read-out: IC50 Dx5_TQ
[8] = Table S1, calculated as ligand equivalents, presence of 1 µM TQ, read-out: IC50 MES-SA_TQ
[9] = Table S1, ligands and in situ preformed complexes, calculated as ligand equivalents, absence of TQ, read-out: IC50 MES-SA

Which results are given for “7-(2-fluorobenzyl-aminomethyl)-8-hydroxyquinoline hydrochloride [De-Cl-Q-4]”?
SR MES-SA/Dx5 (Table 2) (MES-SA/Dx5 cells [1]; Table 2, value in brackets (Tariquidar as in Table 1)): 1.72; SR MES-SA/Dx5 (Table 2) (MES-SA/Dx5 cells [1]; Table 2, value outside brackets): 5.22; IC50 (MES-SA/Dx5 cells [1]; Table 2, value outside brackets, read-out: MES-SA/Dx5 (toxicity, Table 2)): 340 ± 10 nM; Fold change in fluorescence (DCFDA) (MES-SA cells [2]; 6.25 µM): 1.431± 0.39; Fold change in fluorescence (DCFDA) (MES-SA cells [2]; 6.25 µM, presence of 5 mM NAC (brackets)): 1.364± 0.44; Fold change in fluorescence (DCFDA) (MES-SA cells [2]; 12.5 µM): 1.118± 0.14; Fold change in fluorescence (DCFDA) (MES-SA cells [2]; 12.5 µM, presence of 5 mM NAC (brackets)): 1.345± 0.27; Fold change in fluorescence (DCFDA) (MES-SA cells [2]; 25 µM): 1.260± 0.20; Fold change in fluorescence (DCFDA) (MES-SA cells [2]; 25 µM, presence of 5 mM NAC (brackets)): 1.111± 0.22; Fold change in fluorescence (DCFDA) (MES-SA cells [2]; 50 µM): 1.328± 0.29; Fold change in fluorescence (DCFDA) (MES-SA cells [2]; 50 µM, presence of 5 mM NAC (brackets)): 1.259± 0.29; Fold change in fluorescence (DCFDA) (MES-SA/Dx5 cells [3]; MES-SA/Dx5, 6.25 µM): 1.282± 0.35; Fold change in fluorescence (DCFDA) (MES-SA/Dx5 cells [3]; MES-SA/Dx5, 6.25 µM, presence of 5 mM NAC (brackets)): 1.137± 0.30; Fold change in fluorescence (DCFDA) (MES-SA/Dx5 cells [3]; MES-SA/Dx5, 12.5 µM): 1.177± 0.22; Fold change in fluorescence (DCFDA) (MES-SA/Dx5 cells [3]; MES-SA/Dx5, 12.5 µM, presence of 5 mM NAC (brackets)): 1.088± 0.23; Fold change in fluorescence (DCFDA) (MES-SA/Dx5 cells [3]; MES-SA/Dx5, 25 µM): 1.344± 0.27; Fold change in fluorescence (DCFDA) (MES-SA/Dx5 cells [3]; MES-SA/Dx5, 25 µM, presence of 5 mM NAC (brackets)): 1.282± 0.28; Fold change in fluorescence (DCFDA) (MES-SA/Dx5 cells [3]; MES-SA/Dx5, 50 µM): 1.373± 0.35; Fold change in fluorescence (DCFDA) (MES-SA/Dx5 cells [3]; MES-SA/Dx5, 50 µM, presence of 5 mM NAC (brackets)): 1.265± 0.27; pKa (NquinoliniumH+) [4]: 3.21 ± 0.04; pKa (OH) [4]: 6.42 ± 0.04; pKa (additional) ([4]; group named in the cell (NmorpholiniumH+, NpiperidiniumH+, NbenzylamineH2+)): 10.69 ± 0.04 (NbenzylamineH2^+); IC50 (MES-SA cells [5]; Table 2, value outside brackets, read-out: MES-SA (toxicity, Table 2)): 1780 ± 80 nM

With `[Cu+2].[O-]c1cccc2cccnc12.[O-]c1cccc2cccnc12` [1/2 [Cu(Q-1)2]] as the compound, how does the SR (MES-SA/Dx5 cells [1]; absence of TQ) read?
The SR was 1.86.

And the IC50 (MES-SA/Dx5 cells [1]; [6])?
Its IC50 is 2030 ± 460 nM.

What about the IC50 (MES-SA/Dx5 cells [1]; [7]) of the same compound?
Its IC50 is 2610 ± 440 nM.

And the SR_TQ (MES-SA/Dx5 cells [1])?
Its SR_TQ is 1.58.

What about the IC50 (MES-SA cells [5]; [8]) of the same compound?
The IC50 was 4140 ± 1200 nM.

And the IC50 (MES-SA cells [5]; [9])?
The IC50 was 3770 ± 660 nM.

For `[Cu+2].[O-]c1c(CN2CCOCC2)ccc2cccnc12.[O-]c1c(CN2CCOCC2)ccc2cccnc12` [1/2 [Cu(Q-2)2]], which SR (MES-SA/Dx5 cells [1]; absence of TQ) is on record?
Its SR is 1.29.

What about the IC50 (MES-SA/Dx5 cells [1]; [6]) of the same compound?
Its IC50 is 1760 ± 560 nM.

What about the IC50 (MES-SA/Dx5 cells [1]; [7]) of the same compound?
The IC50 was 1920 ± 450 nM.

What about the SR_TQ (MES-SA/Dx5 cells [1]) of the same compound?
The SR_TQ was 1.05.

What about the IC50 (MES-SA cells [5]; [8]) of the same compound?
Its IC50 is 2020 ± 650 nM.

And the IC50 (MES-SA cells [5]; [9])?
Its IC50 is 2270 ± 670 nM.

What does the source list for `[Cu+2].[O-]c1c(CN2CCCCC2)ccc2cccnc12.[O-]c1c(CN2CCCCC2)ccc2cccnc12` [1/2 [Cu(Q-3)2]]?
SR (MES-SA/Dx5 cells [1]; absence of TQ): 2.52; IC50 (MES-SA/Dx5 cells [1]; [6]): 760 ± 260 nM; IC50 (MES-SA/Dx5 cells [1]; [7]): 2040 ± 360 nM; SR_TQ (MES-SA/Dx5 cells [1]): 1.04; IC50 (MES-SA cells [5]; [8]): 2130 ± 650 nM; IC50 (MES-SA cells [5]; [9]): 1910 ± 590 nM

What does the source list for `[Cu+2].[O-]c1c(CNCc2ccccc2F)cc(Cl)c2cccnc12.[O-]c1c(CNCc2ccccc2F)cc(Cl)c2cccnc12` [1/2 [Cu(Q-4)2]]?
SR (MES-SA/Dx5 cells [1]; absence of TQ): 5.03; IC50 (MES-SA/Dx5 cells [1]; [6]): 290 ± 39 nM; IC50 (MES-SA/Dx5 cells [1]; [7]): 1220 ± 25 nM; SR_TQ (MES-SA/Dx5 cells [1]): 1.11; IC50 (MES-SA cells [5]; [8]): 1360 ± 260 nM; IC50 (MES-SA cells [5]; [9]): 1460 ± 160 nM

What does the source list for `[Fe+3].[O-]c1cccc2cccnc12.[O-]c1cccc2cccnc12.[O-]c1cccc2cccnc12` [1/3 [Fe(Q-1)3]]?
SR (MES-SA/Dx5 cells [1]; absence of TQ): 1.13; IC50 (MES-SA/Dx5 cells [1]; [6]): 2920 ± 800 nM; IC50 (MES-SA/Dx5 cells [1]; [7]): 2960 ± 640 nM; SR_TQ (MES-SA/Dx5 cells [1]): 1.04; IC50 (MES-SA cells [5]; [8]): 3070 ± 360 nM; IC50 (MES-SA cells [5]; [9]): 3310 ± 520 nM

For `[Fe+3].[O-]c1c(CN2CCOCC2)ccc2cccnc12.[O-]c1c(CN2CCOCC2)ccc2cccnc12.[O-]c1c(CN2CCOCC2)ccc2cccnc12` [1/3 [Fe(Q-2)3]], which SR (MES-SA/Dx5 cells [1]; absence of TQ) is on record?
Its SR is 1.24.

And the IC50 (MES-SA/Dx5 cells [1]; [6])?
Its IC50 is 3130 ± 840 nM.

And the IC50 (MES-SA/Dx5 cells [1]; [7])?
Its IC50 is 4230 ± 520 nM.

And the SR_TQ (MES-SA/Dx5 cells [1])?
Its SR_TQ is 1.03.

What about the IC50 (MES-SA cells [5]; [8]) of the same compound?
The IC50 was 4350 ± 580 nM.

What about the IC50 (MES-SA cells [5]; [9]) of the same compound?
The IC50 was 3870 ± 880 nM.
